In brackets after ≈: the same amount, converted by molar mass. Where two headings read alike, the source gives them in different places.
Columns and labels:
[1] = test system: β-glucuronidase derived from E. Coli; experiment: In vitro incubation of Glu A and Glu B with β-glucuronidase; format: in vitro ADME; settings: for Glucuronide remaining: 500 μM glucuronide, β-glucuronidase, 37° C.; for Stability in control samples without β-glucuronidase: control incubation, no enzyme
Method: β-glucuronidase derived from E. Coli, glucurase at a concentration of 5,000 units/ml and bovine serum albumin were obtained from Sigma (St. Louis, Mo.). Glu A and Glu B were incubated at a concentration of 500 μM with β-glucuronidase ([…]) in 100 mM potassium acetate buffer solution in a 0.5 ml filter tube. The incubations were run in triplicate.
To each filter tube, 65 μl of 100 mM potassium acetate buffer, 5 μl of bovine serum albumin, and 100 μl of glucurase were added (100 mM potassium acetate was added to the control wells). The pH was adjusted to either pH 5.0 using 1N potassium hydroxide. 10 μl of 10 mM GluA or GluB were then added and the filter tubes were incubated for 30 minutes, 60 minutes or 18 hours at 37° C. Following incubation 20 μl of acetonitrile was added to the filter tubes and the filter tubes were centrifuged. The resulting filtrate was then analyzed by HPLC.
Glu A (500 μM) and Glu B (500 μM) were incubated with β-glucuronidase at 37° C. in pH 5.0 and pH 7.4 buffers. The pH 7.4 buffer is representative of the in vivo pH range in the GI tract. The results of each treatment are shown in Tables 5 (pH 5.0) and Table 6 (pH 7.4).
Glu A was prepared fresh in these experiments. A time-dependent incubation of Glu A and Glu B was carried out for 2, 4 and 6 hours.

Solubility = format: physicochemical
[2] = Absorption (physicochemical properties)
Stability in DMSO = format: physicochemical; settings: especially after freezing and thawing

Row | Compound | Glucuronide remaining ([1]; pH 5.0, 0 hr) | Glucuronide remaining ([1]; pH 5.0, 0.5 hrs) | Glucuronide remaining ([1]; pH 5.0, 1 hr) | Glucuronide remaining ([1]; pH 7.4, 0 hr) | Glucuronide remaining ([1]; pH 7.4, 2 hrs) | Glucuronide remaining ([1]; pH 7.4, 4 hrs) | Stability in control samples without β-glucuronidase [1] | solubility (Solubility; aqueous media, aqueous buffer, pH 3.0, read-out: Solubility in aqueous media) [µg/mL] | solubility (Solubility; aqueous media, aqueous buffer, pH 7.0, read-out: Solubility in aqueous media) [µg/mL] | solubility (Solubility; aqueous with cosolvent or surfactant or cyclodextrin, 20/80-weight% Tween 80/DI water, read-out: Solubility) [µg/mL] | solubility (Solubility; neat PEG-400, organic solvent or mixture, read-out: Solubility) [µg/mL] | Absorption [2] [cm/s] | Stability in DMSO (Stability in DMSO) | Glucuronide remaining ([1]; pH 5.0, 18 hrs) [% Glu-A] | Glucuronide remaining ([1]; pH 7.4, 6 hrs) [% Glu-A]
1 | COc1cc2c(cc1OC)-c1nn(C3OC(C(=O)O)C(O)C(O)C3O)c(Nc3cccc(F)c3)c1C2 (stereo in doubt) [Cpd 1-GluB] | 100% Glu-B | 100% Glu-B | 100% Glu-B | 100% Glu-B | 100% Glu-B | 100% Glu-B | stable |  |  |  |  |  |  |  | 
2 | COc1cc2c(cc1OC)-c1n[nH]c(Nc3cccc(F)c3)c1C2 [Compound 1, (6,7-dimethoxy-2,4-dihydro-indeno[1,2-c]pyrazol-3-yl)-(3-fluoro-phenyl)-amine] |  |  |  |  |  |  |  | < 6 | < 2 | 10000 (≈ 30.7 mM) | 7500 (≈ 23.1 mM) | 1.3e-05 |  |  | 
3 | COc1cc2c(cc1OC)-c1n[nH]c(N(c3cccc(F)c3)[C@H]3O[C@@H](C(=O)O)[C@H](O)[C@@H](O)[C@@H]3O)c1C2 [Cpd 1-GluA] | 100% Glu-A | 60% Glu-A | 34% Glu-A | 100% Glu-A | 67% Glu-A | 48% Glu-A | stable |  |  |  |  |  | relatively unstable | 0 | 23
